Laboratory results published in patent publication US20240316028A1, “[…] FORMULATIONS AND THEIR USES” (priority 2023, published 2024).
Structures can show the parent of a compound that is named as a salt.

Assays:
[1] = type: physicochemical
Procedure: All excipients used in the formulations were compatible with physostigmine before and after eBeam of 25 kGy. NaOH was used to adjust the cream pH and was added before mixing with physostigmine.

[2] = thermal and photolytic conditions

Row | SMILES | Total Impurities Pre eBeam ([1]; Table 13) | Total Impurities Post eBeam T0 ([1]; Table 13, eBeam 25 kGy) | thermal and photolytic degradation [2]
1 | CNC(=O)Oc1ccc2c(c1)[C@]1(C)CCN(C)[C@@H]1N2C [Physostigmine Salicylate] | 0.11 | 0.15 | –
2 | CN1[C@@H]2CC[C@H]1C[C@@H](OC(=O)C(CO)c1ccccc1)C2 (stereo partly drawn) [atropine sulfate] | – | – | No significant variation
